{"source": "PubChem BioAssay (NCI)", "experiment_in_all_cases": "NCI-60 cell line screen, 48 h", "key": {"786-0 renal": {"test_system": "786-0 renal"}, "A498 renal": {"test_system": "A498 renal"}, "A549 NSCLC": {"test_system": "A549 NSCLC"}, "ACHN renal": {"test_system": "ACHN renal"}, "BT-549 breast": {"test_system": "BT-549 breast"}, "CAKI-1 renal": {"test_system": "CAKI-1 renal"}, "CCRF-CEM leukemia": {"test_system": "CCRF-CEM leukemia"}, "COLO 205 colon": {"test_system": "COLO 205 colon"}, "DU-145 prostate": {"test_system": "DU-145 prostate"}, "EKVX NSCLC": {"test_system": "EKVX NSCLC"}, "HCC-2998 colon": {"test_system": "HCC-2998 colon"}, "HCT-116 colon": {"test_system": "HCT-116 colon"}, "HCT-15 colon": {"test_system": "HCT-15 colon"}, "HL-60(TB) leukemia": {"test_system": "HL-60(TB) leukemia"}, "HOP-62 NSCLC": {"test_system": "HOP-62 NSCLC"}, "HOP-92 NSCLC": {"test_system": "HOP-92 NSCLC"}, "HS 578T breast": {"test_system": "HS 578T breast"}, "HT29 colon": {"test_system": "HT29 colon"}, "IGROV1 ovarian": {"test_system": "IGROV1 ovarian"}, "K-562 leukemia": {"test_system": "K-562 leukemia"}, "KM12 colon": {"test_system": "KM12 colon"}, "LOX IMVI melanoma": {"test_system": "LOX IMVI melanoma"}, "M14 melanoma": {"test_system": "M14 melanoma"}, "MALME-3M melanoma": {"test_system": "MALME-3M melanoma"}, "MCF7 breast": {"test_system": "MCF7 breast"}, "MDA-MB-231 breast": {"test_system": "MDA-MB-231 breast"}, "MDA-MB-435": {"test_system": "MDA-MB-435"}, "MDA-MB-468 breast": {"test_system": "MDA-MB-468 breast"}, "MOLT-4 leukemia": {"test_system": "MOLT-4 leukemia"}, "NCI-H226 lung": {"test_system": "NCI-H226 lung"}}, "note": "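1) Cells in 96-well plates. 2) Compound, 48 h, 5 concentrations. 3) Linear interpolation between surrounding doses. 4) Unreached endpoint = highest concentration. GI50 is the concentration that inhibits growth by half. Definition used: TGI = concentration required for complete inhibition of growth.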"}
{"compound": "Nc1nc(-c2ccccc2)c(N=Nc2ccc(Cl)cc2Cl)s1", "values": [{"measurement": "GI50", "setting": "786-0 renal", "value": 2480, "unit": "nM"}, {"measurement": "TGI", "setting": "786-0 renal", "value": 6.34, "unit": "µM"}, {"measurement": "GI50", "setting": "A498 renal", "value": 6.03, "unit": "µM"}, {"measurement": "TGI", "setting": "A498 renal", "value": 18.4, "unit": "µM"}, {"measurement": "GI50", "setting": "A549 NSCLC", "value": 3.67, "unit": "µM"}, {"measurement": "TGI", "setting": "A549 NSCLC", "value": 14.7, "unit": "µM"}, {"measurement": "GI50", "setting": "ACHN renal", "value": 2810, "unit": "nM"}, {"measurement": "TGI", "setting": "ACHN renal", "value": 12.9, "unit": "µM"}, {"measurement": "GI50", "setting": "BT-549 breast", "value": 2430, "unit": "nM"}, {"measurement": "TGI", "setting": "BT-549 breast", "value": 9.74, "unit": "µM"}, {"measurement": "GI50", "setting": "CAKI-1 renal", "value": 2520, "unit": "nM"}, {"measurement": "TGI", "setting": "CAKI-1 renal", "value": 12.3, "unit": "µM"}, {"measurement": "GI50", "setting": "CCRF-CEM leukemia", "value": 3.13, "unit": "µM"}, {"measurement": "TGI", "setting": "CCRF-CEM leukemia", "value": 11, "unit": "µM"}, {"measurement": "GI50", "setting": "COLO 205 colon", "value": 3.91, "unit": "µM"}, {"measurement": "TGI", "setting": "COLO 205 colon", "value": 14.1, "unit": "µM"}, {"measurement": "GI50", "setting": "DU-145 prostate", "value": 5.52, "unit": "µM"}, {"measurement": "TGI", "setting": "DU-145 prostate", "value": 17.8, "unit": "µM"}, {"measurement": "GI50", "setting": "EKVX NSCLC", "value": 2040, "unit": "nM"}, {"measurement": "TGI", "setting": "EKVX NSCLC", "value": 12.3, "unit": "µM"}, {"measurement": "GI50", "setting": "HCC-2998 colon", "value": 1840, "unit": "nM"}, {"measurement": "TGI", "setting": "HCC-2998 colon", "value": 5.41, "unit": "µM"}, {"measurement": "GI50", "setting": "HCT-116 colon", "value": 3.33, "unit": "µM"}, {"measurement": "TGI", "setting": "HCT-116 colon", "value": 12.6, "unit": "µM"}, {"measurement": "GI50", "setting": "HCT-15 colon", "value": 2810, "unit": "nM"}, {"measurement": "TGI", "setting": "HCT-15 colon", "value": 11.7, "unit": "µM"}, {"measurement": "GI50", "setting": "HL-60(TB) leukemia", "value": 3.42, "unit": "µM"}, {"measurement": "TGI", "setting": "HL-60(TB) leukemia", "value": 12.9, "unit": "µM"}, {"measurement": "GI50", "setting": "HOP-62 NSCLC", "value": 4.01, "unit": "µM"}, {"measurement": "TGI", "setting": "HOP-62 NSCLC", "value": 18.4, "unit": "µM"}, {"measurement": "GI50", "setting": "HOP-92 NSCLC", "value": 1850, "unit": "nM"}, {"measurement": "TGI", "setting": "HOP-92 NSCLC", "value": 5.86, "unit": "µM"}, {"measurement": "GI50", "setting": "HS 578T breast", "value": 3.14, "unit": "µM"}, {"measurement": "TGI", "setting": "HS 578T breast", "value": 17.8, "unit": "µM"}, {"measurement": "GI50", "setting": "HT29 colon", "value": 3.31, "unit": "µM"}, {"measurement": "TGI", "setting": "HT29 colon", "value": 10.9, "unit": "µM"}, {"measurement": "GI50", "setting": "IGROV1 ovarian", "value": 2130, "unit": "nM"}, {"measurement": "TGI", "setting": "IGROV1 ovarian", "value": 12.7, "unit": "µM"}, {"measurement": "GI50", "setting": "K-562 leukemia", "value": 3.58, "unit": "µM"}, {"measurement": "TGI", "setting": "K-562 leukemia", "value": 14.9, "unit": "µM"}, {"measurement": "GI50", "setting": "KM12 colon", "value": 2990, "unit": "nM"}, {"measurement": "TGI", "setting": "KM12 colon", "value": 12.8, "unit": "µM"}, {"measurement": "GI50", "setting": "LOX IMVI melanoma", "value": 1830, "unit": "nM"}, {"measurement": "TGI", "setting": "LOX IMVI melanoma", "value": 5.17, "unit": "µM"}, {"measurement": "GI50", "setting": "M14 melanoma", "value": 2880, "unit": "nM"}, {"measurement": "TGI", "setting": "M14 melanoma", "value": 9.54, "unit": "µM"}, {"measurement": "GI50", "setting": "MALME-3M melanoma", "value": 5.38, "unit": "µM"}, {"measurement": "TGI", "setting": "MALME-3M melanoma", "value": 18.1, "unit": "µM"}, {"measurement": "GI50", "setting": "MCF7 breast", "value": 2160, "unit": "nM"}, {"measurement": "TGI", "setting": "MCF7 breast", "value": 10.9, "unit": "µM"}, {"measurement": "GI50", "setting": "MDA-MB-231 breast", "value": 2190, "unit": "nM"}, {"measurement": "TGI", "setting": "MDA-MB-231 breast", "value": 8.67, "unit": "µM"}, {"measurement": "GI50", "setting": "MDA-MB-435", "value": 3.74, "unit": "µM"}, {"measurement": "TGI", "setting": "MDA-MB-435", "value": 14.4, "unit": "µM"}, {"measurement": "GI50", "setting": "MDA-MB-468 breast", "value": 830, "unit": "nM"}, {"measurement": "TGI", "setting": "MDA-MB-468 breast", "value": 3.88, "unit": "µM"}, {"measurement": "GI50", "setting": "MOLT-4 leukemia", "value": 2730, "unit": "nM"}, {"measurement": "TGI", "setting": "MOLT-4 leukemia", "value": 10.3, "unit": "µM"}, {"measurement": "GI50", "setting": "NCI-H226 lung", "value": 2110, "unit": "nM"}]}
